Laboratory results as given in PubChem BioAssay AID288 (DTP/NCI, 2004).
Several values for one entry are separate records, joined by “and”; a condition that tells them apart may be missing. Equal values may be shown once. Inconclusive results are not listed.

Test system: BDF1 mice, M5076 sarcoma s.c., survival/tumor T/C
Assay: NCI In Vivo Anticancer Drug Screen. Data for tumor model Sarcoma M5076 (subcutaneous) in B6D2F1 (BDF1) mice
Protocol: The antitumor activity of compounds was measured in mice bearing transplantable tumors. Survival or tumor size were measured and the results are expressed as the measurement made in the treated group (T) divided by the measurement made in the vehicle treated control group (C). The tumor model used in this assay is Sarcoma M5076 (subcutaneous) in B6D2F1 (BDF1) mice

CN(N=O)C(=O)N[C@@H](C=O)[C@@H](O)[C@H](O)[C@H](O)CO
T/C (endpoint: mean tumor weight, dose: 9.38 mg/kg/injection, schedule: Q02DX011 (ip), vehicle: other, higher = larger tumour): 64 % of control
T/C (endpoint: mean tumor weight, dose: 18.75 mg/kg/injection, schedule: Q02DX011 (ip), vehicle: other, higher = larger tumour): 37 % of control and 56 % of control
T/C (endpoint: mean tumor weight, dose: 37.5 mg/kg/injection, schedule: Q02DX011 (ip), vehicle: other, higher = larger tumour): 11 % of control and 15 % of control
T/C (endpoint: mean tumor weight, dose: 75.0 mg/kg/injection, schedule: Q02DX011 (ip), vehicle: other, higher = larger tumour): 1 % of control
T/C (endpoint: median tumor weight (est.), dose: 9.38 mg/kg/injection, schedule: Q02DX011 (ip), vehicle: other, higher = larger tumour): 45 % of control
T/C (endpoint: median tumor weight (est.), dose: 18.75 mg/kg/injection, schedule: Q02DX011 (ip), vehicle: other, higher = larger tumour): 39 % of control and 60 % of control
T/C (endpoint: median tumor weight (est.), dose: 37.5 mg/kg/injection, schedule: Q02DX011 (ip), vehicle: other, higher = larger tumour): 10 % of control and 34 % of control

CC(=O)O[C@]1(C(C)=O)CC[C@H]2[C@@H]3C[C@H](C)C4=CC(=O)CC[C@]4(C)[C@H]3CC[C@@]21C
T/C (endpoint: mean tumor weight, dose: 100.0 mg/kg/injection, schedule: Q02DX011 (ip), vehicle: Klucel (hydroxypropylcellulose) (HPC), higher = larger tumour): 44 % of control
T/C (endpoint: mean tumor weight, dose: 200.0 mg/kg/injection, schedule: Q02DX011 (ip), vehicle: Klucel (hydroxypropylcellulose) (HPC), higher = larger tumour): 122 % of control
T/C (endpoint: mean tumor weight, dose: 400.0 mg/kg/injection, schedule: Q02DX011 (ip), vehicle: Klucel (hydroxypropylcellulose) (HPC), higher = larger tumour): 74 % of control
T/C (endpoint: median tumor weight (est.), dose: 100.0 mg/kg/injection, schedule: Q02DX011 (ip), vehicle: Klucel (hydroxypropylcellulose) (HPC), higher = larger tumour): 49 % of control
T/C (endpoint: median tumor weight (est.), dose: 200.0 mg/kg/injection, schedule: Q02DX011 (ip), vehicle: Klucel (hydroxypropylcellulose) (HPC), higher = larger tumour): 86 % of control
T/C (endpoint: median tumor weight (est.), dose: 400.0 mg/kg/injection, schedule: Q02DX011 (ip), vehicle: Klucel (hydroxypropylcellulose) (HPC), higher = larger tumour): 59 % of control

CC(=O)O[C@H]1C(=O)[C@@]2(C)[C@H]([C@H](OC(=O)c3ccccc3)[C@]3(O)C[C@H](OC(=O)[C@H](O)[C@@H](NC(=O)c4ccccc4)c4ccccc4)C(C)=C1C3(C)C)[C@]1(OC(C)=O)CO[C@@H]1C[C@@H]2O
T/C (endpoint: mean tumor weight, dose: 10.0 mg/kg/injection, schedule: Q02DX011 (ip), vehicle: Klucel (hydroxypropylcellulose) (HPC), higher = larger tumour): 103 % of control
T/C (endpoint: mean tumor weight, dose: 20.0 mg/kg/injection, schedule: Q02DX011 (ip), vehicle: Klucel (hydroxypropylcellulose) (HPC), higher = larger tumour): 78 % of control
T/C (endpoint: mean tumor weight, dose: 40.0 mg/kg/injection, schedule: Q02DX011 (ip), vehicle: Klucel (hydroxypropylcellulose) (HPC), higher = larger tumour): 57 % of control
T/C (endpoint: median survival time, dose: 1.32 mg/kg/injection, schedule: Q02DX011 (ip), vehicle: Klucel (hydroxypropylcellulose) (HPC), higher = longer survival): 108 % of control
T/C (endpoint: median survival time, dose: 1.32 mg/kg/injection, schedule: Q02DX011 (ip), vehicle: other, higher = longer survival): 115 % of control
T/C (endpoint: median survival time, dose: 1.98 mg/kg/injection, schedule: Q02DX011 (ip), vehicle: Klucel (hydroxypropylcellulose) (HPC), higher = longer survival): 111 % of control
T/C (endpoint: median survival time, dose: 1.98 mg/kg/injection, schedule: Q02DX011 (ip), vehicle: other, higher = longer survival): 109 % of control
T/C (endpoint: median survival time, dose: 2.5 mg/kg/injection, schedule: Q04DX003 (ip), vehicle: Klucel (hydroxypropylcellulose) (HPC), higher = longer survival): 85 % of control
T/C (endpoint: median survival time, dose: 2.96 mg/kg/injection, schedule: Q02DX011 (ip), vehicle: Klucel (hydroxypropylcellulose) (HPC), higher = longer survival): 103 % of control
T/C (endpoint: median survival time, dose: 4.44 mg/kg/injection, schedule: Q02DX011 (ip), vehicle: Klucel (hydroxypropylcellulose) (HPC), higher = longer survival): 111 % of control
T/C (endpoint: median survival time, dose: 4.44 mg/kg/injection, schedule: Q02DX011 (ip), vehicle: other, higher = longer survival): 115 % of control
T/C (endpoint: median survival time, dose: 5.0 mg/kg/injection, schedule: Q04DX003 (ip), vehicle: Klucel (hydroxypropylcellulose) (HPC), higher = longer survival): 103 % of control
T/C (endpoint: median survival time, dose: 6.67 mg/kg/injection, schedule: Q02DX011 (ip), vehicle: Klucel (hydroxypropylcellulose) (HPC), higher = longer survival): 119 % of control
T/C (endpoint: median survival time, dose: 6.67 mg/kg/injection, schedule: Q02DX011 (ip), vehicle: other, higher = longer survival): 112 % of control
T/C (endpoint: median survival time, dose: 10.0 mg/kg/injection, schedule: Q02DX011 (ip), vehicle: Klucel (hydroxypropylcellulose) (HPC), higher = longer survival): 110 % of control
T/C (endpoint: median survival time, dose: 10.0 mg/kg/injection, schedule: Q02DX011 (ip), vehicle: other, higher = longer survival): 106 % of control
T/C (endpoint: median survival time, dose: 10.0 mg/kg/injection, schedule: Q04DX003 (ip), vehicle: Klucel (hydroxypropylcellulose) (HPC), higher = longer survival): 109 % of control
T/C (endpoint: median survival time, dose: 15.0 mg/kg/injection, schedule: Q02DX011 (ip), vehicle: Klucel (hydroxypropylcellulose) (HPC), higher = longer survival): 91 % of control
T/C (endpoint: median survival time, dose: 15.0 mg/kg/injection, schedule: Q02DX011 (ip), vehicle: other, higher = longer survival): 107 % of control
T/C (endpoint: median survival time, dose: 22.5 mg/kg/injection, schedule: Q02DX011 (ip), vehicle: other, higher = longer survival): 108 % of control
T/C (endpoint: median tumor weight (est.), dose: 1.32 mg/kg/injection, schedule: Q02DX011 (ip), vehicle: Klucel (hydroxypropylcellulose) (HPC), higher = larger tumour): 83 % of control
T/C (endpoint: median tumor weight (est.), dose: 1.32 mg/kg/injection, schedule: Q02DX011 (ip), vehicle: other, higher = larger tumour): 106 % of control
T/C (endpoint: median tumor weight (est.), dose: 1.98 mg/kg/injection, schedule: Q02DX011 (ip), vehicle: Klucel (hydroxypropylcellulose) (HPC), higher = larger tumour): 73 % of control
T/C (endpoint: median tumor weight (est.), dose: 1.98 mg/kg/injection, schedule: Q02DX011 (ip), vehicle: other, higher = larger tumour): 96 % of control
T/C (endpoint: median tumor weight (est.), dose: 2.96 mg/kg/injection, schedule: Q02DX011 (ip), vehicle: Klucel (hydroxypropylcellulose) (HPC), higher = larger tumour): 87 % of control
T/C (endpoint: median tumor weight (est.), dose: 2.96 mg/kg/injection, schedule: Q02DX011 (ip), vehicle: other, higher = larger tumour): 87 % of control
T/C (endpoint: median tumor weight (est.), dose: 4.44 mg/kg/injection, schedule: Q02DX011 (ip), vehicle: Klucel (hydroxypropylcellulose) (HPC), higher = larger tumour): 62 % of control
T/C (endpoint: median tumor weight (est.), dose: 4.44 mg/kg/injection, schedule: Q02DX011 (ip), vehicle: other, higher = larger tumour): 76 % of control
T/C (endpoint: median tumor weight (est.), dose: 6.67 mg/kg/injection, schedule: Q02DX011 (ip), vehicle: Klucel (hydroxypropylcellulose) (HPC), higher = larger tumour): 58 % of control
T/C (endpoint: median tumor weight (est.), dose: 6.67 mg/kg/injection, schedule: Q02DX011 (ip), vehicle: other, higher = larger tumour): 79 % of control
T/C (endpoint: median tumor weight (est.), dose: 10.0 mg/kg/injection, schedule: Q02DX011 (ip), vehicle: other, higher = larger tumour): 63 % of control
T/C (endpoint: median tumor weight (est.), dose: 15.0 mg/kg/injection, schedule: Q02DX011 (ip), vehicle: Klucel (hydroxypropylcellulose) (HPC), higher = larger tumour): 73 % of control
T/C (endpoint: median tumor weight (est.), dose: 15.0 mg/kg/injection, schedule: Q02DX011 (ip), vehicle: other, higher = larger tumour): 59 % of control
T/C (endpoint: median tumor weight (est.), dose: 20.0 mg/kg/injection, schedule: Q02DX011 (ip), vehicle: Klucel (hydroxypropylcellulose) (HPC), higher = larger tumour): 63 % of control
T/C (endpoint: median tumor weight (est.), dose: 22.5 mg/kg/injection, schedule: Q02DX011 (ip), vehicle: other, higher = larger tumour): 38 % of control
T/C (endpoint: median tumor weight (est.), dose: 40.0 mg/kg/injection, schedule: Q02DX011 (ip), vehicle: Klucel (hydroxypropylcellulose) (HPC), higher = larger tumour): 31 % of control

Cc1ccc(C(=O)N=Nc2c(Cl)c(O)c3ccccc3c2O)cc1
T/C (endpoint: median survival time, dose: 12.5 mg/kg/injection, schedule: Q01DX009 (ip), vehicle: saline with Tween-80, higher = longer survival): 113 % of control
T/C (endpoint: median survival time, dose: 25.0 mg/kg/injection, schedule: Q01DX009 (ip), vehicle: saline with Tween-80, higher = longer survival): 110 % of control
T/C (endpoint: median survival time, dose: 50.0 mg/kg/injection, schedule: Q01DX009 (ip), vehicle: saline with Tween-80, higher = longer survival): 89 % of control
T/C (endpoint: median tumor weight (est.), dose: 12.5 mg/kg/injection, schedule: Q01DX009 (ip), vehicle: saline with Tween-80, higher = larger tumour): 62 % of control
T/C (endpoint: median tumor weight (est.), dose: 25.0 mg/kg/injection, schedule: Q01DX009 (ip), vehicle: saline with Tween-80, higher = larger tumour): 120 % of control
T/C (endpoint: median tumor weight (est.), dose: 50.0 mg/kg/injection, schedule: Q01DX009 (ip), vehicle: saline with Tween-80, higher = larger tumour): 80 % of control
T/C (endpoint: median tumor weight (est.), dose: 100.0 mg/kg/injection, schedule: Q01DX009 (ip), vehicle: saline with Tween-80, higher = larger tumour): 88 % of control

Cc1c(N)nc([C@H](CC(N)=O)NC[C@H](N)C(N)=O)nc1C(=O)N[C@H](C(=O)N[C@H](C)[C@@H](O)[C@H](C)C(=O)N[C@H](C(=O)NCCc1nc(-c2nc(C(=O)NCCC[S+](C)C)cs2)cs1)[C@@H](C)O)C(OC1OC(CO)C(O)C(O)C1OC1OC(CO)C(O)C(OC(N)=O)C1O)c1cnc[nH]1 (stereo partly specified)
T/C (endpoint: median survival time, dose: 1.6 mg/kg/injection, schedule: Q04DX009 (ip), vehicle: saline, higher = longer survival): 108 % of control
T/C (endpoint: median survival time, dose: 3.2 mg/kg/injection, schedule: Q04DX009 (ip), vehicle: saline, higher = longer survival): 115 % of control

Cc1ncc([N+](=O)[O-])n1CCO
T/C (endpoint: median survival time, dose: 750.0 mg/kg/injection, schedule: Q01DX001 (ip), vehicle: saline, higher = longer survival): 116 % of control
T/C (endpoint: median survival time, dose: 1000.0 mg/kg/injection, schedule: Q01DX001 (ip), vehicle: saline with Tween-80, higher = longer survival): 105 % of control and 85 % of control
T/C (endpoint: median survival time, dose: 1500.0 mg/kg/injection, schedule: Q01DX001 (ip), vehicle: saline, higher = longer survival): 89 % of control and 90 % of control
T/C (endpoint: median survival time, dose: 2000.0 mg/kg/injection, schedule: Q01DX001 (ip), vehicle: saline with Tween-80, higher = longer survival): 91 % of control
T/C (endpoint: median survival time, dose: 2000.0 mg/kg/injection, schedule: Q01DX001 (ip), vehicle: saline, higher = longer survival): 87 % of control (2×) and 89 % of control
T/C (endpoint: median survival time, dose: 2500.0 mg/kg/injection, schedule: Q01DX001 (ip), vehicle: saline with Tween-80, higher = longer survival): 78 % of control

O=[N+]([O-])c1nccn1CC(O)CO (stereo unspecified)
T/C (endpoint: median survival time, dose: 1776.0 mg/kg/injection, schedule: Q01DX001 (ip), vehicle: saline, higher = longer survival): 101 % of control and 102 % of control
T/C (endpoint: median survival time, dose: 2500.0 mg/kg/injection, schedule: Q01DX001 (ip), vehicle: saline, higher = longer survival): 102 % of control (2×) and 92 % of control
